The text below walks through data of patent US8759539B2, “Substituted bicyclic amines for the treatment of diabetes” (Merck Sharp & Dohme Corp., priority 2008, dated 2014).

For test [1], the target named is T1, SSTR5 (Homo sapiens, UniProt P35346). Nature of the test: SSTR5 binding (R5 Bnd).
Target sequence in this assay (P35346 whole entry, species assumed): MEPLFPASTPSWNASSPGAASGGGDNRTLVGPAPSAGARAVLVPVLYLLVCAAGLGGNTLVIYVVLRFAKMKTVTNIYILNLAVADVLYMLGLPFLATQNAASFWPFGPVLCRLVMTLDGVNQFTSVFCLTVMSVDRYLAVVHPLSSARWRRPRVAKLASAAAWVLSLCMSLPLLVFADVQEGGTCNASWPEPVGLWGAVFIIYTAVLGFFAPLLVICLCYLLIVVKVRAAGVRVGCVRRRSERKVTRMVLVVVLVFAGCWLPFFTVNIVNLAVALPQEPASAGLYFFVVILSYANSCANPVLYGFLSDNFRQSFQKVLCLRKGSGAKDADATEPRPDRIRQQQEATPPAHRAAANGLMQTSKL
Test [2] deals with T1, SSTR5. The test can be described thus: Functional assay to assess the inhibition of SSTR5 mediated cyclic AMP production. The test is classed as cell-based, human or mouse. The following applies: SSTR5 stable CHO cells, 5 μM FSK, Lance cAMP assay kit, eight-point titration. The procedure: Functional Assay to Assess the Inhibition of SSTR5Mediated Cyclic AMP Production:
The effects of compounds that bind to human and murine SSTR5 with various affinities on the functional activity of the receptor were assessed by measuring cAMP production in the presence of Forskolin (FSK) alone or FSK plus SS-28 in SSTR5 expressing CHO cells. FSK acts to induce cAMP production in these cells by activating adenylate cyclases, whereas SS-28 suppresses cAMP production in the SSTR5 stable cells by binding to SSTR5 and the subsequent inhibition of adenylate cyclases via an alpha subunit of […] (Gαi).
To measure the agonism activity of the compounds, human or mouse SSTR5 stable CHO cells were pre-incubated with the compounds for 15 min, followed by a one-hour incubation of the cells with 5 μM FSK (in the continuous presence of the compounds). The amount of cAMP produced during the incubation was quantified with the Lance cAMP assay kit (PerkinElmer, CA) according to the manufacturer's instruction, as well as, an IC50 value was obtained by an eight-point titration.
Target sequence in this assay (P35346 whole entry): as the sequence (P35346 whole entry, species assumed) above

SMILES strings stand for the structures.

For orientation: IC50 means the concentration at which inhibition is half-maximal. A lower IC50 goes with greater potency in that assay. With `CCOc1cc(CN2CC[C@H]3C(NS(=O)(=O)c4cccc(C)c4)CC[C@H]32)cc(OCC)c1-c1ccc(F)cc1` (stereo partly shown) [Example 101], the IC50 on SSTR5 [1] was found to be 12.1 nM; against SSTR5 [2] it was 263 nM.
On the same counts, the results for `CCOc1cc(CN2CC[C@H]3C(NC(=O)c4ccc5c(c4)nnn5C(C)C)CC[C@H]32)cc(OCC)c1-c1ccc(F)cc1` (stereo partly shown) [Example 72] are 4.65 nM and 59.5 nM.
Taken in the same sequence, the figures for `CCOc1cc(CN2CC[C@H]3C(Nc4nc5ccc(F)cc5o4)CC[C@H]32)cc(OCC)c1-c1ccc(F)cc1` (stereo partly shown) [Example 83] were 7.47 nM and 252 nM.
For `CCOc1cc(CN2CC[C@H]3C(NC(=O)c4ccc5[nH]c(C)nc5c4)CC[C@H]32)cc(OCC)c1-c1ccc(F)cc1` (stereo partly shown) [Example 69], the results for the IC50 at SSTR5 [1] and on SSTR5 [2] were 53.5 nM and 137 nM, respectively.
Taken in the same sequence, the figures for `CCOc1cc(CN2CC[C@H]3C(NC(=O)c4cccc(C)c4)CC[C@H]32)cc(OCC)c1-c1ccc(F)cc1` (stereo in doubt) [Example 63] were 1.72 nM and 32.6 nM.
On the same counts, the results for `CCOc1cc(CN2CC[C@H]3C(NC(=O)OCc4ccccc4)CC[C@H]32)cc(OCC)c1-c1ccc(F)cc1` (stereo partly shown) [Example 97] are 1.44 nM and 32.4 nM.
Taken in the same sequence, the figures for `CCOc1cc(CN2CC[C@H]3C(Nc4nc5cc(S(=O)(=O)/N=C/N(C)C)ccc5o4)CC[C@H]32)cc(OCC)c1-c1ccc(F)cc1` (stereo partly shown) [Example 100] were 2.07 nM and 38.7 nM.
For `CCOc1cc(CN2CC[C@H]3C(Nc4nc5ccc(C(=O)O)cc5o4)CC[C@H]32)cc(OCC)c1-c1ccc(F)cc1` (stereo partly shown) [Example 79], the IC50 is 1.29 nM at SSTR5 [1] and 5.21 nM on SSTR5 [2].
Taken in the same sequence, the figures for `CCOc1cc(CN2CC[C@H]3C(NC(=O)c4cccc(C)c4)CC[C@H]32)cc(OCC)c1-c1ccc(F)cc1` (stereo in doubt) [Example 81] were 5.01 nM and 70.1 nM.
`CCOc1cc(CN2CC[C@H]3C(NC(=O)c4cnc5cc(Cl)ccc5c4O)CC[C@H]32)cc(OCC)c1-c1ccc(F)cc1` (stereo partly shown) [Example 61]: the IC50 at SSTR5 [1] is 15.8 nM; at SSTR5 [2], 122 nM.
On to `Cc1cncc(C(=O)N[C@H]2CC[C@@H]3[C@H]2CCN3Cc2cccc(-c3ccccc3)c2)c1` [Example 19], for which the IC50 on SSTR5 [1] came to 124 nM; against SSTR5 [2] it was 1220 nM.
Taken in the same sequence, the figures for `CCOc1cc(CN2CC[C@H]3C(NC(=O)Nc4cccc(C)c4)CC[C@H]32)cc(OCC)c1-c1ccc(F)cc1` (stereo partly shown) [Example 90] were 4.99 nM and 85.7 nM.
Taken in the same sequence, the figures for `CCOc1cc(CN2CC[C@H]3C(NC(=O)c4ccc(C)nc4)CC[C@H]32)cc(OCC)c1-c1ccc(F)cc1` (stereo partly shown) [Example 60] were 5.45 nM and 46.2 nM.
Taken in the same sequence, the figures for `CCOc1cc(CN2CC[C@H]3C(NC(=O)c4cncnc4)CC[C@H]32)cc(OCC)c1-c1ccc(F)cc1` (stereo partly shown) [Example 75] were 148 nM and 386 nM.
